According to patent publication US6576669B2 (Boehringer Ingelheim Pharma KG, priority 2001, dated 2003):

System: muc-5AC RNA
Assay: Biochemical study: Pseudomonas aeruginosa LPS aerosol-induced muc-5AC RNA in rat trachea (TaqMan real time PCR)
Format: in vivo
Conditions: 3 mg/kg p.o. 6 hours before LPS aerosol, trachea taken 20 hours after exposure, compared with vehicle pre-treatment
Experimental: Two different rat strains, BDE and F344/NHsd, were tested because previous studies had shown strain-related differences in reactivity to lipopolysaccharides.
Animals Used: Adult male rats, strain BDE/Han, average weight about […] (range 340 g to 450 g), and adult male F344/NHsd rats, average weight about 250 g (range 240 g to 260g).
Animal Maintenance: The rats were housed in air-conditioned rooms, at 21° C.-25° C., relative humidity between 50% and 65%, day-night cycle 12 hours. They were fed before the start of the experiment and received tap water ad lib. 18 hours prior to drug administration, food was withdrawn, but drinking water remained available.
The compound of formula (I), namely carbamic acid, [[4-[[3-[[4-[1-(4-hydroxyphenyl)-1-methylethyl]phenoxy]methyl]phenyl]methoxy]phenyl]iminomethyl]ethyl ester, was synthesized as described in the International Patent Application WO 96/02497 and jet milled. For administration to animals, the compound of formula (I) was first dissolved in LABRASOL® and a 7% emulsion was then prepared of this LABRASOL® solution in distilled water (homogenized). […]
Extraction and Quantitation of RNA: Total RNA was isolated with the RNeasy system (Qiagen, Germany). […] Quantitation of muc-5AC RNA was performed by the TAQMAN® real time PCR system using an ABI Prism 7700 Detector (Perkin Elmer Corporation, California USA). […]

**Q.** Which results are given for `CCOC(=O)/N=C(\N)c1ccc(OCc2cccc(COc3ccc(C(C)(C)c4ccc(O)cc4)cc3)c2)cc1` [compound (I)]?
**A.** increase in tracheal epithelial expression of the muc-5AC gene (relative to 18S ribosomal RNA) after Pseudomonas aeruginosa aerosol (BDE strain rats, p=0.003): reduced this increase to less than half the value with only vehicle pre-treatment; increase in tracheal epithelial expression of the muc-5AC gene (relative to 18S ribosomal RNA) after Pseudomonas aeruginosa aerosol (F344 strain rats, p=0.010): reduced this increase to less than half the value with only vehicle pre-treatment
